Test results reported in patent publication US10934298B2, “Substituted pyrazolo[1,5-a]pyrimidines for the treatment of medical disorders” (BIAL—BioTech Investments, Inc., priority 2016, dated 2021).

Molecular target: T1, glucocerebrosidase (Gcase) (Homo sapiens, UniProt P04062)
T1 construct: micellar solution containing 10 nM GCase and 100 nM saposin C
T1 sequence (P04062 40-536): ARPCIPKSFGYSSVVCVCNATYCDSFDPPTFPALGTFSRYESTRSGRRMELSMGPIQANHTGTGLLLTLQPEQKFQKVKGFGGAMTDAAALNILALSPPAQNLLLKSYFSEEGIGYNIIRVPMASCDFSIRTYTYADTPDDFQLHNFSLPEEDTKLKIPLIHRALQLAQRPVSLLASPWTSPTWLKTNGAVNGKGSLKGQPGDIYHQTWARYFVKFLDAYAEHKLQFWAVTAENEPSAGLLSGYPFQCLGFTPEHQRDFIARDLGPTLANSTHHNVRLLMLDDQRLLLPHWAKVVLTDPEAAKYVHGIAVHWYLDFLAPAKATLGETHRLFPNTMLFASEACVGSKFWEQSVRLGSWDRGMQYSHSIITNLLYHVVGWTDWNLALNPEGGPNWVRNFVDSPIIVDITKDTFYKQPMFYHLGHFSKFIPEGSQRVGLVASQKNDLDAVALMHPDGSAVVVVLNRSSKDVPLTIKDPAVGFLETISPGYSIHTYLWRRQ
Assay: Glucocerebrosidase (Gcase) activation assay with 4-methylumbelliferyl-beta-D-glucopyranoside substrate, saposin C and phosphatidylserine/triton micelles, fluorescence readout
Assay type: biochemical
Procedure, shortened: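 10 nM GCase with 100 nM saposin C pre-incubated 30 min with compound in pH 4.7 phosphate/citrate PS/triton micelles, then mixed 1:1 with 2 mM 4-methylumbelliferyl-β-glucoside micellar substrate (stock level). Run 15 min at room temperature, stopped at pH 12.5; fluorescence 365/440 nm. Screened at 1.0 and 0.1 μM; 8-point curves from 5 μM.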

SMILES	Percent Gcase Activation, 0.1 μM Test Compound (test compound at 0.1 μM)	Percent Gcase Activation, 1 μM Test Compound (test compound at 1.0 μM)	other results
Cc1cc(-c2cncc(C(F)(F)F)c2)nc2c(C(=O)N[C@H](C)C(F)(F)F)cnn12 [III-286]			Percent Gcase Activation, 0.1 μM Test Compound (0.1 μM test compound): *** (greater than 20% Gcase activation); Percent Gcase Activation, 1 μM Test Compound (1 μM test compound): +++ (Gcase activation greater than 60%)
COc1cc(C#N)cc(-c2cc(C)n3ncc(C(=O)N[C@@H](C)C4CC4)c3n2)c1 [III-129]	*** (greater than 20% Gcase activation)	+++ (Gcase activation greater than 60%)	
Cc1cc(-n2ccc(F)n2)nc2c(C(=O)N[C@@H](C3CC3)C(F)(F)F)cnn12 [III-174]	*** (greater than 20% Gcase activation)	+++ (Gcase activation greater than 60%)	
Cc1cc(-c2cccnc2F)nc2c(C(=O)N[C@@H](C3CC3)C(F)(F)F)cnn12 [III-115]	*** (greater than 20% Gcase activation)	+++ (Gcase activation greater than 60%)	
Cc1cc(C)n2ncc(C(=O)Nc3ccc4c(c3)OCO4)c2n1 [IV-4]			Percent Gease Activation, 0.1 μM Test Compound (0.1 μM test compound, Table 4): * (less than 10% Gcase activation); Percent Gease Activation, 1 μM Test Compound (1 μM test compound, Table 4): ++ (Gcase activation in the range of 30% up to 60%)
Cc1cc(-c2cccnc2F)nc2c(C(=O)NC(C3CC3)C(F)(F)F)cnn12 (centres unmarked) [III-113]	*** (greater than 20% Gcase activation)	+++ (Gcase activation greater than 60%)	
Cc1cc(-c2ccc(Cl)cn2)nc2c(C(=O)NC(C3CC3)C(F)(F)F)cnn12 (centres unmarked) [III-208]	** (Gcase activation in the range of 10% up to 20%)	+ (less than 30% Gcase activation)	
C#CC(NC(=O)c1cnn2c(C)cc(-c3cccc(Cl)c3)nc12)C(F)(F)F (centres unmarked) [III-99]	*** (greater than 20% Gcase activation)	++ (Gcase activation in the range of 30% up to 60%)	
Cc1cc(-c2cccc(C(N)=O)c2)nc2c(C(=O)NC(C3CC3)C(F)(F)F)cnn12 (centres unmarked) [III-73]			Percent Gcase Activation, 0.1 μM Test Compound (0.1 μM test compound, Table 3A): *** (greater than 20% Gcase activation); Percent Gcase Activation, 1 μM Test Compound (1 μM test compound, Table 3A): +++ (Gcase activation greater than 60%)
COc1ccc(-c2cc(C)n3ncc(C(=O)N[C@@H](C)C(F)(F)F)c3n2)cn1 [III-273]	*** (greater than 20% Gcase activation)	+++ (Gcase activation greater than 60%)	
COc1ccc(F)cc1-c1cc(C)n2ncc(C(=O)NC(C)C(F)(F)F)c2n1 (centres unmarked) [III-194]	*** (greater than 20% Gcase activation)	+++ (Gcase activation greater than 60%)	
Cc1cc(-c2cccnc2)nc2c(C(=O)N[C@H]3CC[C@H](OCC(C)C)CC3)cnn12 [III-39]			Percent Gcase Activation, 0.1 μM Test Compound (0.1 μM test compound, Table 3A): ** (Gcase activation in the range of 10% up to 20%); Percent Gcase Activation, 1 μM Test Compound (1 μM test compound, Table 3A): +++ (Gcase activation greater than 60%)
Cc1cc(-c2ccccn2)nc2c(C(=O)NC(C)(C)C3CC3)cnn12 [III-16]			Percent Gcase Activation, 0.1 μM Test Compound (0.1 μM test compound, Table 3A): ** (Gcase activation in the range of 10% up to 20%); Percent Gcase Activation, 1 μM Test Compound (1 μM test compound, Table 3A): +++ (Gcase activation greater than 60%)
COc1ccncc1-c1cc(C)n2ncc(C(=O)NC(C3CC3)C(F)(F)F)c2n1 (centres unmarked) [III-263]	* (less than 10% Gcase activation)	++ (Gcase activation in the range of 30% up to 60%)	
Cc1ncc(-c2cc(C)n3ncc(C(=O)N[C@H](C4CC4)C(F)(F)F)c3n2)o1 [III-247]	*** (greater than 20% Gcase activation)	+++ (Gcase activation greater than 60%)	
Cc1cc(C(F)(F)F)nc2c(C(=O)NC(C)(C)C3CC3)cnn12 [III-68]			Percent Gcase Activation, 0.1 μM Test Compound (0.1 μM test compound, Table 3A): * (less than 10% Gcase activation); Percent Gcase Activation, 1 μM Test Compound (1 μM test compound, Table 3A): + (less than 30% Gcase activation)
C#CC(C)(C)NC(=O)c1cnn2c(C)cc(-c3cccc(OC4CC4)c3)nc12 [III-82]			Percent Gcase Activation, 0.1 μM Test Compound (0.1 μM test compound, Table 3A): *** (greater than 20% Gcase activation); Percent Gcase Activation, 1 μM Test Compound (1 μM test compound, Table 3A): +++ (Gcase activation greater than 60%)
Cc1cncc(-c2cc(C)n3ncc(C(=O)NC(C4CC4)C(F)(F)F)c3n2)c1 (centres unmarked) [III-275]	*** (greater than 20% Gcase activation)	+++ (Gcase activation greater than 60%)	
Cc1ncccc1-c1cc(C)n2ncc(C(=O)N[C@@H](C3CC3)C(F)(F)F)c2n1 [III-377]			Percent Gcase Activation, 0.1 μM Test Compound (0.1 μM test compound): * (less than 10% Gcase activation); Percent Gcase Activation, 1 μM Test Compound (1 μM test compound): + (less than 30% Gcase activation)

SMILES	Percent Gcase Activation, 0.1 μM Test Compound (test compound at 0.1 μM)	Percent Gcase Activation, 1 μM Test Compound (test compound at 1.0 μM)	other results
Cc1cc(-c2cccc3ocnc23)nc2c(C(=O)NC(C3CC3)C(F)(F)F)cnn12 (centres unmarked) [III-106]	*** (greater than 20% Gcase activation)	++ (Gcase activation in the range of 30% up to 60%)	
Cc1oc(C#N)cc1-c1cc(C)n2ncc(C(=O)N[C@@H](C3CC3)C(F)(F)F)c2n1 [III-244]	*** (greater than 20% Gcase activation)	+++ (Gcase activation greater than 60%)	
Cc1coc(-c2cc(C)n3ncc(C(=O)N[C@H](C4CC4)C(F)(F)F)c3n2)n1 [III-255]	** (Gcase activation in the range of 10% up to 20%)	+++ (Gcase activation greater than 60%)	
Cc1ncc(F)cc1-c1cc(C)n2ncc(C(=O)N[C@@H](C3CC3)C(F)(F)F)c2n1 [III-379]			Percent Gcase Activation, 0.1 μM Test Compound (0.1 μM test compound): ** (Gcase activation in the range of 10% up to 20%); Percent Gcase Activation, 1 μM Test Compound (1 μM test compound): +++ (Gcase activation greater than 60%)
Cc1cc(-c2ccc(F)nc2)nc2c(C(=O)NC(C3CC3)C(F)(F)F)cnn12 (centres unmarked) [III-84]			Percent Gcase Activation, 0.1 μM Test Compound (0.1 μM test compound, Table 3A): *** (greater than 20% Gcase activation); Percent Gcase Activation, 1 μM Test Compound (1 μM test compound, Table 3A): +++ (Gcase activation greater than 60%)
COc1cc(F)cc(-c2cc(C)n3ncc(C(=O)N[C@@H](C)C4CC4)c3n2)c1 [III-137]	*** (greater than 20% Gcase activation)	+++ (Gcase activation greater than 60%)	
Cc1cc(-c2cccc3ncsc23)nc2c(C(=O)NC(C)C(F)(F)F)cnn12 (centres unmarked) [III-221]	*** (greater than 20% Gcase activation)	+++ (Gcase activation greater than 60%)	
Cc1cc(-c2ccc3ncn(C)c3c2)nc2c(C(=O)N[C@@H](C3CC3)C(F)(F)F)cnn12 [III-306]			Percent Gcase Activation, 0.1 μM Test Compound (0.1 μM test compound): *** (greater than 20% Gcase activation); Percent Gcase Activation, 1 μM Test Compound (1 μM test compound): +++ (Gcase activation greater than 60%)
Cc1cc(N2CCCC(F)(F)C2)nc2c(C(=O)NC(C)C3CC3)cnn12 (centres unmarked) [III-61]			Percent Gcase Activation, 0.1 μM Test Compound (0.1 μM test compound, Table 3A): *** (greater than 20% Gcase activation); Percent Gcase Activation, 1 μM Test Compound (1 μM test compound, Table 3A): +++ (Gcase activation greater than 60%)
CCc1cc(-c2ccccn2)nc2c(C(=O)NC(C)C3CC3)cnn12 (centres unmarked) [III-49]			Percent Gcase Activation, 0.1 μM Test Compound (0.1 μM test compound, Table 3A): * (less than 10% Gcase activation); Percent Gcase Activation, 1 μM Test Compound (1 μM test compound, Table 3A): +++ (Gcase activation greater than 60%)
Cc1cc(-c2ccc(F)cc2)nc2c(C(=O)N[C@H](C)C3CC3)cnn12 [III-86]	** (Gcase activation in the range of 10% up to 20%)	+++ (Gcase activation greater than 60%)	
Cc1cc(-c2ccc(F)cc2C#N)nc2c(C(=O)NC(C3CC3)C(F)(F)F)cnn12 (centres unmarked) [III-151]	*** (greater than 20% Gcase activation)	+++ (Gcase activation greater than 60%)	
Cc1cc(C#N)c(-c2cc(C)n3ncc(C(=O)N[C@@H](C)C(F)(F)F)c3n2)s1 [III-348]			Percent Gcase Activation, 0.1 μM Test Compound (0.1 μM test compound): *** (greater than 20% Gcase activation); Percent Gcase Activation, 1 μM Test Compound (1 μM test compound): +++ (Gcase activation greater than 60%)
Cc1cc(-c2cccc(Cl)n2)nc2c(C(=O)N[C@@H](C)C3CC3)cnn12 [III-131]	*** (greater than 20% Gcase activation)	+++ (Gcase activation greater than 60%)	
Cc1ncc(-c2cc(C)n3ncc(C(=O)N[C@H](C4CC4)C(F)(F)F)c3n2)cc1F [III-380]			Percent Gcase Activation, 0.1 μM Test Compound (0.1 μM test compound): *** (greater than 20% Gcase activation); Percent Gcase Activation, 1 μM Test Compound (1 μM test compound): +++ (Gcase activation greater than 60%)
Cc1cc(N2CCC(F)(F)C2)nc2c(C(=O)NC(C3CC3)C(F)(F)F)cnn12 (centres unmarked) [III-67]			Percent Gcase Activation, 0.1 μM Test Compound (0.1 μM test compound, Table 3A): *** (greater than 20% Gcase activation); Percent Gcase Activation, 1 μM Test Compound (1 μM test compound, Table 3A): +++ (Gcase activation greater than 60%)
Cc1cc(-c2cccc3ncn(C)c23)nc2c(C(=O)NC(C3CC3)C(F)(F)F)cnn12 (centres unmarked) [III-309]			Percent Gcase Activation, 0.1 μM Test Compound (0.1 μM test compound): * (less than 10% Gcase activation); Percent Gcase Activation, 1 μM Test Compound (1 μM test compound): + (less than 30% Gcase activation)
COCc1cc(-c2cccc(OC)c2)nc2c(C(=O)NC(C)(C)C3CC3)cnn12 [III-79]			Percent Gcase Activation, 0.1 μM Test Compound (0.1 μM test compound, Table 3A): *** (greater than 20% Gcase activation); Percent Gcase Activation, 1 μM Test Compound (1 μM test compound, Table 3A): +++ (Gcase activation greater than 60%)
